Laboratory results reported in publication PMC7667029, “A Targeted Computational Screen of the SWEETLEAD Database Reveals FDA-Approved Compounds with Anti-Dengue Viral Activity” (mBio, 2020).
“Also recorded” adds a separate entry of the source.

Legend:
[1] = test system: BHK-21 and Huh7 cells; test: Cell viability by WST assay in uninfected cells (Table S1); type: cell-based; details: cell viability relative to vehicle at these doses
Procedure: Supplementary file : TABLE S1 Summary of hits for lead compounds ARDP0006 and ST-148 screened for anti-dengue activity in tissue culture cells. Hit compounds were tested for anti-dengue activity and cell toxicity in tissue culture cell lines. Antiviral activity is summarized as follows: −, not antiviral, with titer greater than 50% of vehicle; +, weakly antiviral, with titer between 20 and 50% of vehicle; ++, moderately antiviral, with titer between 5 and 20% of vehicle; +++, highly antiviral, with titer less than 5% of vehicle. Toxicity at these doses is represented as follows: −, nontoxic, with cell viability greater than 80% of vehicle; +, mild toxicity, with cell viability between 60 and 80% of vehicle; +++, high toxicity, with cell viability less than 60% of vehicle. Data summarized here are depicted graphically in Fig. S1 and Fig. 2C, 3C, and [4]C. […]
Supplementary file : FIG S1 Initial screening of eliminated hit compounds for anti-dengue activity in tissue culture cells. […] Cell viability in uninfected cells in the presence of compounds for 48 h was measured by WST assay (gray). […]
Mock-infected wells were used to determine cell viability in the presence of chemical compounds compared to 1% DMSO vehicle control. Cell viability was determined using the WST-1 kit (Abcam) per the manufacturer’s instructions. […]

[2] = test system: dengue virus; test: Initial screening of hit compounds for anti-dengue activity in tissue culture cells (Table S1); type: cell-based; details: viral titer relative to vehicle, tissue culture cell lines (BHK-21 48 hpi, Fig. S1; Huh7, Fig. 2C, 3C, 4C)
[3] = test system: dengue virus; test: Extracellular and intracellular virus quantification in Huh7 cells; type: cell-based; details: IC90 dose (spautin-1 2.4 μM, vandetanib 3.6 μM), Huh7, 24 hpi
Procedure: FIG 5 Vandetanib and spautin-1 inhibit dengue maturation and egress in a VPS34-independent manner. […] Cells were pretreated for 1 h, infected for 1 h at an MOI of 0.5 PFU/cell, and posttreated for an additional 23 h. N = 4, one-way ANOVA with Dunnett’s multiple-comparison test. ns, not significant (P > 0.05); **, P < 0.01; ****, P < 0.0001. (C) Huh7 cells transfected with a luciferase-expressing RNA replicon were treated with 3 μM vandetanib (orange) or 1% DMSO vehicle control (black) for 1 h prior to transfection and up to 52 h posttransfection. Luciferase intensity was quantified as a measure of viral protein abundance. Luciferase intensity was shown as relative light units (RLU). The use of an RNA replicon that is directly transfected into cells reflects only translation and RNA replication steps of viral infection, not viral packaging or cell exit. N = 4, two-way ANOVA with Sikak’s multiple-comparison test. […] (D) VPS34 was not required for spautin-1 or vandetanib anti-dengue activity. Wild-type and VPS34 knockout Huh7 cells were treated with 5 μM spautin-1, 5 μM vandetanib, or DMSO. Cells were pretreated, infected at an MOI of 0.5, and posttreated as described above for panels A and B. At 24 hpi, cellular supernatant was collected and titered by plaque assay. N ≥ 3. One-way ANOVA with Dunnett’s multiple-comparison test; *, P < 0.05; **, P < 0.01; ***, P < 0.001; ****, P < 0.0001.
After 1 h, virus inoculum was aspirated and replaced with medium containing compounds or 1% DMSO. After 24-h total infection, extracellular virus was collected in cellular supernatant and quantified by plaque assay. To collect intracellular virus, cells were washed with PBS, incubated for 3 min at 4°C with high-salt buffer (1 M NaCl, 50 mM sodium bicarbonate [pH 9.5]) to detach cell-associated extracellular virus ([63]), washed twice with PBS, detached with 0.25% trypsin-EDTA, and isolated by centrifugation (500 × g, 5 min, 4°C). Infected cell pellets were resuspended in 750 μl cell culture medium, lysed by repeated freeze/thaw in liquid nitrogen followed by 37°C water bath. Debris was removed by centrifugation (3,200 × g, 5 min, 4°C), and infectious intracellular virus was quantified by BHK-21 plaque assay.

[4] = test system: DENV2; test: DENV2-infected AGB6 mouse model (splenic titer, survival); type: in vivo, AGB6 mice; details: AGB6 mice, 15 mg/kg vandetanib twice daily, 15 mg/kg; for Splenic viral titer: 4 days postinfection; for Survival of infected mice: oral

COc1cc2c(Nc3ccc(Br)cc3F)ncnc2cc1OCC1CCN(C)CC1 [Vandetanib, vandetanib]
Toxicity [1]: − (nontoxic, with cell viability greater than 80% of vehicle) | Antiviral [2]: ++ (moderately antiviral, with titer between 5 and 20% of vehicle) | Extracellular viral titer [3]: significantly reduced; also recorded: reduced extracellular virus | Infectious intracellular virus [3]: unchanged; also recorded: abundant intracellular virus | Splenic viral titer [4]: did not affect splenic titers | Splenic viral titer ([4]; listed as vandetanib): did not significantly impact splenic viral titer | Survival of infected mice [4]: extend survival | Survival of infected mice ([4]; listed as vandetanib): significantly extended survival
